Legend:
Test in all cases: relative viability (nuclei count vs DMSO), 5 days (fraction); higher = more cells survive
[1] = tested on: 201T
Procedure, shortened: (§1)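 Lung cancer cell lines were pin-tool dosed in 1536-well plates on the day after seeding, with either a lone drug or a fixed anchor-drug dose plus five library-drug doses (not always all listed) in √10 steps. Nuclei were counted on 4× images after 5 days. Relative viability is the ratio of treated-well to vehicle-well nuclei counts, with each value a median of duplicate plates.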

[2] = tested on: COR-L 105
Procedure, shortened: as §1

[3] = tested on: ChaGo-K-1
Procedure, shortened: as §1

[4] = tested on: EPLC-272H
Procedure, shortened: as §1

[5] = tested on: H3255
Procedure, shortened: as §1

[6] = tested on: HCC-78
Procedure, shortened: as §1

[7] = tested on: HCC-827
Procedure, shortened: as §1

[8] = tested on: LC-2-ad
Procedure, shortened: as §1

[9] = tested on: LCLC-97TM1
Procedure, shortened: as §1

[10] = tested on: NCI-H1666
Procedure, shortened: as §1

[11] = tested on: NCI-H1915
Procedure, shortened: as §1

[12] = tested on: NCI-H2087
Procedure, shortened: as §1

[13] = tested on: NCI-H2126
Procedure, shortened: as §1

[14] = tested on: NCI-H2347
Procedure, shortened: as §1

[15] = tested on: NCI-H23
Procedure, shortened: as §1

[16] = tested on: NCI-H2405
Procedure, shortened: as §1

[17] = tested on: NCI-H322M
Procedure, shortened: as §1

[18] = tested on: NCI-H520
Procedure, shortened: as §1

[19] = tested on: NCI-H647
Procedure, shortened: as §1

[20] = tested on: NCI-H650
Procedure, shortened: as §1

[21] = tested on: NCI-H661
Procedure, shortened: as §1

[22] = tested on: PC-14
Procedure, shortened: as §1

[23] = tested on: RERF-LC-KJ
Procedure, shortened: as §1

With NC(=O)Nc1cc(-c2cccc(F)c2)sc1C(=O)N[C@H]1CCCNC1 [AZD7762] + O=C(c1cc(Cc2n[nH]c(=O)c3ccccc23)ccc1F)N1CCN(C(=O)C2CC2)CC1 [Olaparib] (partner 8 µM) the relative viability ([1]; first compound 0.01 µM) was 0.821, the relative viability ([1]; first compound 0.03162 µM) was 0.854 and the relative viability ([1]; first compound 0.1 µM) was 0.885. The relative viability ([1]; first compound 0.3162 µM) was 0.566, the relative viability ([1]; first compound 1 µM) was 0.475 and the relative viability ([2]; first compound 0.01 µM) was 0.699. For the same compound, the relative viability ([2]; first compound 0.03162 µM) was 0.643, the relative viability ([2]; first compound 0.1 µM) was 0.529 and the relative viability ([2]; first compound 0.3162 µM) was 0.542. It also gave a relative viability ([2]; first compound 1 µM) of 0.516, a relative viability ([3]; first compound 0.01 µM) of 0.394 and a relative viability ([3]; first compound 0.03162 µM) of 0.425. The relative viability ([3]; first compound 0.1 µM) was 0.423, the relative viability ([3]; first compound 0.3162 µM) was 0.415 and the relative viability ([3]; first compound 1 µM) was 0.379. The relative viability ([4]; first compound 0.01 µM) was 1.08, the relative viability ([4]; first compound 0.03162 µM) was 0.707 and the relative viability ([4]; first compound 0.1 µM) was 0.586. It also gave a relative viability ([4]; first compound 0.3162 µM) of 0.219, a relative viability ([4]; first compound 1 µM) of 0.0768 and a relative viability ([5]; first compound 0.01 µM) of 0.551. It also gave a relative viability ([5]; first compound 0.03162 µM) of 0.542, a relative viability ([5]; first compound 0.1 µM) of 0.59 and a relative viability ([5]; first compound 0.3162 µM) of 0.518. The relative viability ([5]; first compound 1 µM) was 0.497, the relative viability ([6]; first compound 0.01 µM) was 0.86 and the relative viability ([6]; first compound 0.03162 µM) was 1. For the same compound, the relative viability ([6]; first compound 0.1 µM) was 0.775, the relative viability ([6]; first compound 0.3162 µM) was 0.85 and the relative viability ([6]; first compound 1 µM) was 0.515. For the same compound, the relative viability ([7]; first compound 0.01 µM) was 0.654, the relative viability ([7]; first compound 0.03162 µM) was 0.678 and the relative viability ([7]; first compound 0.1 µM) was 0.64. The relative viability ([7]; first compound 0.3162 µM) was 0.267, the relative viability ([7]; first compound 1 µM) was 0.288 and the relative viability ([8]; first compound 0.01 µM) was 0.818. It also gave a relative viability ([8]; first compound 0.03162 µM) of 0.772, a relative viability ([8]; first compound 0.1 µM) of 0.781 and a relative viability ([8]; first compound 0.3162 µM) of 0.703. It also gave a relative viability ([8]; first compound 1 µM) of 0.606, a relative viability ([9]; first compound 0.01 µM) of 0.493 and a relative viability ([9]; first compound 0.03162 µM) of 0.523. The relative viability ([9]; first compound 0.1 µM) was 0.438, the relative viability ([9]; first compound 0.3162 µM) was 0.552 and the relative viability ([9]; first compound 1 µM) was 0.198. It also gave a relative viability ([10]; first compound 0.01 µM) of 0.85, a relative viability ([10]; first compound 0.03162 µM) of 0.973 and a relative viability ([10]; first compound 0.1 µM) of 1.06. For the same compound, the relative viability ([10]; first compound 0.3162 µM) was 0.968, the relative viability ([10]; first compound 1 µM) was 0.814 and the relative viability ([11]; first compound 0.01 µM) was 0.275. For the same compound, the relative viability ([11]; first compound 0.03162 µM) was 0.308, the relative viability ([11]; first compound 0.1 µM) was 0.272 and the relative viability ([11]; first compound 0.3162 µM) was 0.209. It also gave a relative viability ([11]; first compound 1 µM) of 0.189, a relative viability ([12]; first compound 0.01 µM) of 0.712 and a relative viability ([12]; first compound 0.03162 µM) of 0.768. It also gave a relative viability ([12]; first compound 0.1 µM) of 0.806, a relative viability ([12]; first compound 0.3162 µM) of 0.858 and a relative viability ([12]; first compound 1 µM) of 0.583. The relative viability ([13]; first compound 0.01 µM) was 0.948, the relative viability ([13]; first compound 0.03162 µM) was 0.982 and the relative viability ([13]; first compound 0.1 µM) was 0.966. For the same compound, the relative viability ([13]; first compound 0.3162 µM) was 0.941, the relative viability ([13]; first compound 1 µM) was 0.885 and the relative viability ([14]; first compound 0.01 µM) was 0.612. For the same compound, the relative viability ([14]; first compound 0.03162 µM) was 0.656, the relative viability ([14]; first compound 0.1 µM) was 0.78 and the relative viability ([14]; first compound 0.3162 µM) was 0.693. The relative viability ([14]; first compound 1 µM) was 0.544, the relative viability ([15]; first compound 0.01 µM) was 0.311 and the relative viability ([15]; first compound 0.03162 µM) was 0.287. The relative viability ([15]; first compound 0.1 µM) was 0.255, the relative viability ([15]; first compound 0.3162 µM) was 0.222 and the relative viability ([15]; first compound 1 µM) was 0.168. For the same compound, the relative viability ([16]; first compound 0.01 µM) was 0.889, the relative viability ([16]; first compound 0.03162 µM) was 0.911 and the relative viability ([16]; first compound 0.1 µM) was 0.837. For the same compound, the relative viability ([16]; first compound 0.3162 µM) was 0.816, the relative viability ([16]; first compound 1 µM) was 0.294 and the relative viability ([17]; first compound 0.01 µM) was 0.795. It also gave a relative viability ([17]; first compound 0.03162 µM) of 0.933, a relative viability ([17]; first compound 0.1 µM) of 0.85 and a relative viability ([17]; first compound 0.3162 µM) of 0.627. It also gave a relative viability ([17]; first compound 1 µM) of 0.354, a relative viability ([18]; first compound 0.01 µM) of 0.367 and a relative viability ([18]; first compound 0.03162 µM) of 0.364. It also gave a relative viability ([18]; first compound 0.1 µM) of 0.27, a relative viability ([18]; first compound 0.3162 µM) of 0.223 and a relative viability ([18]; first compound 1 µM) of 0.194. The relative viability ([19]; first compound 0.01 µM) was 0.612, the relative viability ([19]; first compound 0.03162 µM) was 0.494 and the relative viability ([19]; first compound 0.1 µM) was 0.238. For the same compound, the relative viability ([19]; first compound 0.3162 µM) was 0.0816, the relative viability ([19]; first compound 1 µM) was 0.0532 and the relative viability ([20]; first compound 0.01 µM) was 0.417. The relative viability ([20]; first compound 0.03162 µM) was 0.49, the relative viability ([20]; first compound 0.1 µM) was 0.494 and the relative viability ([20]; first compound 0.3162 µM) was 0.446. The relative viability ([20]; first compound 1 µM) was 0.337, the relative viability ([21]; first compound 0.01 µM) was 0.798 and the relative viability ([21]; first compound 0.03162 µM) was 0.779. For the same compound, the relative viability ([21]; first compound 0.1 µM) was 0.711, the relative viability ([21]; first compound 0.3162 µM) was 0.503 and the relative viability ([21]; first compound 1 µM) was 0.426. For the same compound, the relative viability ([22]; first compound 0.01 µM) was 0.248, the relative viability ([22]; first compound 0.03162 µM) was 0.157 and the relative viability ([22]; first compound 0.1 µM) was 0.0969. The relative viability ([22]; first compound 0.3162 µM) was 0.0837, the relative viability ([22]; first compound 1 µM) was 0.0568 and the relative viability ([23]; first compound 0.01 µM) was 0.928. The relative viability ([23]; first compound 0.03162 µM) was 0.922, the relative viability ([23]; first compound 0.1 µM) was 1.01 and the relative viability ([23]; first compound 0.3162 µM) was 0.893. For the same compound, the relative viability ([23]; first compound 1 µM) was 0.65.
